Measurements as given in patent US20260374766A1, “METHODS FOR TREATING CANCER” (Antares Therapeutics, Inc., priority 2022, published 2026).
pIC50, pKd: −log10 of the molar value. Read-outs that look alike come from different tables or passages of the source.

Experiments:
H1299 p53 R273H = assay: Cell Proliferation Assay (CellTiter-Glo, CTG), H1299 p53 R273H (NClH1299-inducible p53 R273H); format: cell-based; conditions: Homo sapiens, NCI-H1299, 120 h, 5 days
Procedure, shortened: (§1)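 Cells seeded at 250-500 per well and exposed to compound for 5 days. Viability read by CellTiter-Glo luminescence after 10 min at room temperature; IC50 calculated. H1299 lines carry Tet-One inducible p53 mutant constructs introduced by lentiviral transduction.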

p53 Y220C = p53 Y220C (Homo sapiens, UniProt P04637, Y220C); assay: Luciferase Reporter Assay (Luc), p53 response element, NClH1299 cells with inducible p53 Y220C; format: cell-based; conditions: 6 hour; for AC50: read-out: Luc P53 Y220C AC50
Procedure, shortened: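 Luminescence readout (One-Glo, 5 min shaking at RT, read at once) after 6 h compound exposure; cells pre-induced 24 h with 0.5 ug/mL doxycycline, 5,000/well.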

H1299 p53 Y220C = assay: Cell Proliferation Assay (CellTiter-Glo, CTG), H1299 p53 Y220C (NClH1299-inducible p53 Y220C); format: cell-based; conditions: Homo sapiens, NCI-H1299, 120 h, 5 days
Procedure, shortened: as §1

NUGC3 p53 Y220C = assay: Cell Proliferation Assay (CellTiter-Glo, CTG), NUGC3 p53 Y220C; format: cell-based; conditions: Homo sapiens, NUGC-3, 120 h, 5 days
Procedure, shortened: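 NClH1299 lines stably transduced with Tet-inducible p53 Y220C or R273H, plus NUGC3, were treated with compound for 5 days at 250-500 cells/well. IC50 derived from CellTiter-Glo luminescent signal after 10 min room-temperature incubation.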

[1] = biological target: T1, p53 Y220C mutant protein (amino acid residues 94-293) (Homo sapiens, UniProt P04637, Y220C); assay: Surface Plasmon Resonance (SPR) assay, Kd_kinetic; format: binding; conditions: SPR, p53 Y220C, read-out: SPR P53 Y220C KD kinetic
T1 construct: p53 Y220C mutant protein (amino acid residues 94-293)
Procedure, shortened: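 Binding measured by SPR on a Biacore 8K in running buffer of 50 mM Tris pH 7.5, 100 mM NaCl, 1 mM DTT, 0.01% Brij35, 0.05% Tween-20, 1% DMSO.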

[2] = NClH1299-inducible p53 R273H cells, CellTiter-Glo
[3] = AC50, luciferase reporter, NClH1299 inducible p53 Y220C
[4] = Emax, luciferase reporter, NClH1299 inducible p53 Y220C
[5] = NClH1299-inducible p53 Y220C cells, CellTiter-Glo
[6] = luciferase reporter, NClH1299 inducible p53 Y220C, 10 uM tool compound as positive control
[7] = luciferase reporter, NClH1299 inducible p53 Y220C
[8] = NClH1299-inducible p53 R273H cells
[9] = AC50, NClH1299 cells with inducible p53 Y220C
[10] = Emax, NClH1299 cells with inducible p53 Y220C, 10 uM tool compound as positive control
[11] = NClH1299-inducible p53 Y220C cells

T1 sequence (P04637 94-293, stated change not applied): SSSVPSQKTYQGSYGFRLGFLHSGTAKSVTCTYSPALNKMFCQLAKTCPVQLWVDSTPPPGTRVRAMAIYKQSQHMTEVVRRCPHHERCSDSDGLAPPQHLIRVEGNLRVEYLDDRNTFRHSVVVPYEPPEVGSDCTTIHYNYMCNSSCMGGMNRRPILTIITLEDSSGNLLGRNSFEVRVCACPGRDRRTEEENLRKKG

SMILES | pIC50 (H1299 p53 R273H; [2]) | AC50 (p53 Y220C; [3]) | Emax (p53 Y220C; [4]) | pIC50 (H1299 p53 Y220C; [5]) | pIC50 (NUGC3 p53 Y220C; NUGC3 cells, CellTiter-Glo) | pKd [1] | pIC50 (H1299 p53 R273H; CellTiter-Glo, H1299 p53 R273H) | Emax (p53 Y220C; [6]) | AC50 (p53 Y220C; [7]) | pIC50 (H1299 p53 Y220C; CellTiter-Glo, H1299 p53 Y220C) | pIC50 (NUGC3 p53 Y220C; CellTiter-Glo, NUGC3 p53 Y220C) | pKd ([1]; kinetic KD) | pIC50 (H1299 p53 R273H; [8]) | AC50 (p53 Y220C; [9]) | Emax (p53 Y220C; [10]) | pIC50 (H1299 p53 Y220C; [11]) | pIC50 (NUGC3 p53 Y220C; NUGC3 cells)
CNC(=O)c1ccc(OC)c(NCC#Cc2cc3c(N[C@@H]4CN(C)C[C@@H]4F)nccn3c2SC(F)F)c1 [Example 331] | ≤ 5.00 | < 0.75 µM | > 90% | > 6.12 | > 6.12 | > 8.00 | – | – | – | – | – | – | – | – | – | – | –
CNC(=O)c1ccc(OC)c(NCC#Cc2nc3c(N[C@@H]4C[C@@H]5CC[C@H]4N5C)cccn3c2SC(F)(F)F)c1 [Example 249] | 5.10 to 5.30 | 0.75 to 1.5 µM | < 70% | 5.82 to 6.12 | 5.82 to 6.12 | > 8.00 | – | – | – | – | – | – | – | – | – | – | –
CNC(=O)c1ccc(OC)c(NCC#Cc2cc3c(N[C@@H]4CNC[C@@H]4F)nccn3c2SC(F)(F)F)c1 [Example 209] | – | – | – | – | – | – | ≤ 5.00 | > 90% | < 0.75 µM | 5.82 to 6.12 | > 6.12 | > 8.00 | – | – | – | – | –
CNC(=O)c1ccc(NCC#Cc2nn3c(N[C@@H]4CCN(C)C[C@@H]4F)ccnc3c2SC(F)(F)F)c(OC)c1 [Example 205] | – | – | – | – | – | – | ≤ 5.00 | < 70% | > 3 µM | < 5.52 | < 5.52 | 7.00 to 8.00 | – | – | – | – | –
C[C@H](O)CNC(=O)c1ccc(NCC#Cc2cc3c(N[C@@H]4CCNC[C@@H]4F)cccn3c2SC(F)(F)F)cc1 [Example 403] | ≤ 5.00 | < 0.75 µM | > 90% | > 6.12 | > 6.12 | > 8.00 | – | – | – | – | – | – | – | – | – | – | –
CNC(=O)c1cc(NCC#Cc2cc3c(N[C@H]4CCN(C)C[C@H]4F)cccn3c2SC(F)(F)F)c2nccn2c1 (stereo in doubt) [Example 503, 8-{[3-(8-{[(3R,4S)-3-fluoro-1-methylpiperidin-4-yl]amino}-3-[(trifluoromethyl)sulfanyl]indolizin-2-yl)prop-2-yn-1-yl]amino}-N-methylimidazo[1,2-a]pyridine-6-carboxamide] | – | – | – | – | – | > 8.00 | – | – | – | – | – | – | 5.10 to 5.30 | < 0.75 µM | > 90% | > 6.12 | > 6.12
CNC(=O)c1ccc(OC)c(NCC#Cc2cc3c(N[C@@H]4CN(C)C[C@@H]4F)nccn3c2SC(F)(F)F)n1 [Example 211] | – | – | – | – | – | – | ≤ 5.00 | 80 to 90% | < 0.75 µM | > 6.12 | 5.82 to 6.12 | > 8.00 | – | – | – | – | –
CNC(=O)c1ccc(NCC#Cc2cc3c(N[C@@H]4CCN(C)C[C@@H]4F)cccn3c2SC(F)(F)F)c(C(F)F)c1 [Example 450, 3-(difluoromethyl)-4-{[3-(8-{[(3S,4R)-3-fluoro-1-methylpiperidin-4-yl]amino}-3-[(trifluoromethyl)sulfanyl]indolizin-2-yl)prop-2-yn-1-yl]amino}-N-methylbenzamide] | ≤ 5.00 | < 0.75 µM | > 90% | > 6.12 | > 6.12 | > 8.00 | – | – | – | – | – | – | – | – | – | – | –
CNC(=O)c1ccc(NCC#Cc2nc3c(N[C@@H]4C[C@H]5COC[C@@H]([C@@H]4F)N5C)cccn3c2SC(F)(F)F)c(OC)c1 [Example 137] | – | – | – | – | – | – | ≤ 5.00 | < 70% | > 3 µM | < 5.52 | < 5.52 | 7.00 to 8.00 | – | – | – | – | –
O=C(N[C@H]1C[C@@H](O)C1)c1ccc(NCC#Cc2cc3c(N[C@@H]4CCNC[C@@H]4F)cccn3c2SC(F)(F)F)cc1 [Example 391] | ≤ 5.00 | < 0.75 µM | 80 to 90% | > 6.12 | > 6.12 | > 8.00 | – | – | – | – | – | – | – | – | – | – | –
CNC(=O)c1ccc(O[C@H]2C[C@H](O)C2)c(NCC#Cc2cc3c(N[C@@H]4CCN(C)C[C@@H]4F)cccn3c2SC(F)(F)F)c1 [Example 497, 3-{[3-(8-{[(3S,4R)-3-fluoro-1-methylpiperidin-4-yl]amino}-3-[(trifluoromethyl)sulfanyl]indolizin-2-yl)prop-2-yn-1-yl]amino}-N-methyl-4-[(1r,3r)-3-hydroxycyclobutoxy]benzamide] | – | – | – | – | – | > 8.00 | – | – | – | – | – | – | ≤ 5.00 | < 0.75 µM | > 90% | > 6.12 | > 6.12
CNC(=O)c1ccc(NCC#Cc2cc3c(N[C@@H]4CNC[C@@H]4F)cccn3c2SC(F)(F)F)c(OC)c1 [Example 392] | ≤ 5.00 | < 0.75 µM | 80 to 90% | > 6.12 | > 6.12 | > 8.00 | – | – | – | – | – | – | – | – | – | – | –
CNC(=O)c1ccc(C(=O)NC)c(NCC#Cc2cc3c(N[C@@H]4CCN(C)C[C@@H]4F)cccn3c2SC(F)(F)F)c1 [Example 508] | – | – | – | – | – | > 8.00 | – | – | – | – | – | – | 5.00 to 5.10 | < 0.75 µM | > 90% | > 6.12 | > 6.12
COc1cc(C(=O)N2CC(C)(O)C2)ccc1NCC#Cc1cc2c(N[C@@H]3CCN(C)C[C@@H]3F)cccn2c1SC(F)(F)F [Example 377] | 5.10 to 5.30 | < 0.75 µM | > 90% | > 6.12 | > 6.12 | > 8.00 | – | – | – | – | – | – | – | – | – | – | –
CNC(=O)c1ccc(NCC#Cc2cc3c(N[C@@H]4CCN(C)C[C@@H]4F)nccn3c2SC(F)(F)F)c(F)c1 [Example 302] | ≤ 5.00 | < 0.75 µM | > 90% | > 6.12 | > 6.12 | > 8.00 | – | – | – | – | – | – | – | – | – | – | –
CNC(=O)c1ccc(NCC#Cc2nn3c(N[C@@H]4CCNC[C@@H]4F)cccc3c2SC(F)(F)F)c(OC)c1 [Example 272] | 5.10 to 5.30 | < 0.75 µM | 80 to 90% | > 6.12 | 5.82 to 6.12 | > 8.00 | – | – | – | – | – | – | – | – | – | – | –
CN1CCO[C@H](CNC(=O)c2ccc(NCC#Cc3cc4c(N[C@@H]5CCN(C)C[C@@H]5F)cccn4c3SC(F)(F)F)cc2)C1 [Example 388] | 5.10 to 5.30 | < 0.75 µM | 80 to 90% | > 6.12 | > 6.12 | > 8.00 | – | – | – | – | – | – | – | – | – | – | –
CNC(=O)c1ccc(OC)c(NCC#Cc2cc3c(N[C@@H]4CNC[C@@H]4F)cccn3c2SC(F)(F)F)c1 [Example 478] | – | – | – | – | – | > 8.00 | – | – | – | – | – | – | ≤ 5.00 | < 0.75 µM | > 90% | > 6.12 | > 6.12
COc1ccc(C(=O)NC[C@H](C)O)cc1NCC#Cc1cc2c(N[C@@H]3CCN(C)C[C@@H]3F)cccn2c1SC(F)(F)F [Example 404] | 5.00 to 5.10 | < 0.75 µM | > 90% | > 6.12 | > 6.12 | > 8.00 | – | – | – | – | – | – | – | – | – | – | –
